From PubChem BioAssay (NCI)
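The compound was tested at five concentrations on cells cultured in 96-well plates, with a 48-hour exposure period. The concentration for 50% growth inhibition is given as GI50. TGI denotes the concentration required for complete inhibition of growth.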

Columns and labels:
Experiment in all cases: inhibition of tumour cell growth, NCI panel, 48 h
LOX IMVI melanoma = system: LOX IMVI melanoma
HT29 colon = system: HT29 colon
CCRF-CEM leukemia = system: CCRF-CEM leukemia
SW-620 colon = system: SW-620 colon
UACC-62 melanoma = system: UACC-62 melanoma
SNB-75 CNS = system: SNB-75 CNS
NCI-H226 lung = system: NCI-H226 lung
NCI-H460 lung = system: NCI-H460 lung
EKVX NSCLC = system: EKVX NSCLC
IGROV1 ovarian = system: IGROV1 ovarian

| Compound | GI50 (LOX IMVI melanoma) | TGI (LOX IMVI melanoma) | GI50 (HT29 colon) | TGI (HT29 colon) | GI50 (CCRF-CEM leukemia) | TGI (CCRF-CEM leukemia) | GI50 (SW-620 colon) | TGI (SW-620 colon) | GI50 (UACC-62 melanoma) | TGI (UACC-62 melanoma) | GI50 (SNB-75 CNS) | TGI (SNB-75 CNS) | GI50 (NCI-H226 lung) | TGI (NCI-H226 lung) | GI50 (NCI-H460 lung) | TGI (NCI-H460 lung) | GI50 (EKVX NSCLC) | TGI (EKVX NSCLC) | TGI (IGROV1 ovarian) | GI50 (IGROV1 ovarian) |
| --- | --- | --- | --- | --- | --- | --- | --- | --- | --- | --- | --- | --- | --- | --- | --- | --- | --- | --- | --- | --- |
| CCN(CC)CCN1CC(O)=C(c2nc(-c3ccc(Cl)cc3)cs2)C1=N | 1.83 µM | 3.43 µM | 2 µM | 6.27 µM | 2 µM | 4.99 µM | 1.91 µM | 3.8 µM | 1.87 µM | 3.53 µM | 1.6 µM | 3.4 µM | 1.85 µM | 3.88 µM | 2.04 µM | 4.29 µM | 9.36 µM | 33.9 µM |  |  |
| COc1ccc2c(c1)C=C([N+](=O)[O-])C(C1OC(C)(C)OC1C1COC(C)(C)O1)O2 (stereo not given) |  | 2.92 µM |  | 4.34 µM |  | 4.2 µM |  | 6.81 µM |  | 3.72 µM |  | 28.2 µM |  | 21.6 µM |  | 13.6 µM |  | 21.2 µM | 31.7 µM |  |
| CN(C)CCNC(=O)c1cccc(C(=O)Nc2ccccc2)c1[N+](=O)[O-] |  |  |  | > 100 µM |  | > 100 µM |  | > 100 µM |  | > 100 µM |  | > 100 µM |  | > 100 µM |  | > 100 µM |  |  | > 100 µM |  |
| N.N.N.N.N.O=C([O-])c1nn[n-]n1.[Cl-].[Co+3] | > 100 µM | > 100 µM | > 100 µM | > 100 µM | > 100 µM | > 100 µM | > 100 µM | > 100 µM | > 100 µM | > 100 µM | > 100 µM | > 100 µM | > 100 µM | > 100 µM | > 100 µM | > 100 µM | > 100 µM | > 100 µM | > 100 µM | > 100 µM |
| CC(C)(C)OC(=O)Cc1ccc2c(ccn2Cc2ccccc2)c1 |  | > 100 µM |  | 36.4 µM |  | > 100 µM |  | > 100 µM |  | > 100 µM |  | > 100 µM |  | > 100 µM |  | > 100 µM |  | > 100 µM | > 100 µM |  |
| COC(=O)C1=NC(=S)NC(c2ccccc2)C1c1nc2ccccc2s1 (stereo not given) |  |  |  | > 100 µM |  | > 100 µM |  | > 100 µM |  | > 100 µM |  | > 100 µM |  | > 100 µM |  | > 100 µM |  | > 100 µM | > 100 µM |  |
| O=C(CCl)Nc1ccc(Cl)cc1 | 1.56 µM | 4.23 µM | 2.03 µM | 4.26 µM |  |  | 3.45 µM | 11.2 µM | 3.6 µM | 17 µM | 7.43 µM | 21.1 µM | 4.17 µM | 15.7 µM | 3.86 µM | 16.5 µM | 6.93 µM | 26.3 µM | 5.04 µM | 2.11 µM |
| COc1cc[nH]c1/C=C1\C(=O)Nc2ccccc21 | 7.68 µM | > 25 µM | 12.3 µM | > 25 µM | 13.1 µM | > 25 µM | 7.24 µM | > 25 µM | 8.58 µM | > 25 µM | 5.9 µM | > 25 µM | 7.14 µM | > 25 µM | 8.85 µM | > 25 µM |  |  | > 25 µM | 8.48 µM |
| COc1ccc(-c2cn3ccsc3n2)cc1 |  | > 100 µM |  | > 100 µM |  | > 100 µM |  | 34.9 µM |  | > 100 µM |  | > 100 µM |  | > 100 µM |  | > 100 µM |  | > 100 µM | > 100 µM |  |
| Cc1ccc(N(C(=O)CC(=O)NN)C(=O)c2ccccc2Cl)cc1 |  | > 100 µM |  | > 100 µM |  | > 100 µM |  | > 100 µM |  | > 100 µM |  | > 100 µM |  | > 100 µM |  | > 100 µM |  | > 100 µM | > 100 µM |  |
| CC(C)=CCC/C(=C/CC/C(C)=C/CCc1ccoc1)C(=O)O |  | > 100 µM |  | > 100 µM |  | > 100 µM |  | > 100 µM |  | > 100 µM |  | > 100 µM |  | > 100 µM |  | > 100 µM |  | > 100 µM |  |  |
| COc1ccc(C(=O)c2cc(C)c(OC)c(C)c2)c(OC)c1N(C(=O)C(Cl)Cl)C(=O)C(Cl)Cl | 0.159 µM | > 100 µM | 0.323 µM | > 40.6 µM | 0.0626 µM | > 100 µM | 0.0426 µM | > 100 µM | 0.0605 µM | > 100 µM | 0.0283 µM | > 100 µM | 0.0468 µM | 0.468 µM | 0.0381 µM | 15.7 µM | 0.0735 µM | > 100 µM | > 100 µM | 0.101 µM |
| Cc1cc(SCC(=O)c2ccccc2)nc2ccccc12 |  | > 100 µM |  | > 100 µM |  |  |  | > 100 µM |  | > 100 µM |  | > 100 µM |  | > 100 µM |  | > 100 µM |  | > 100 µM | > 100 µM |  |
| Cc1noc(C)c1CCCOC1COc2ccccc2OCCOCCOc2ccccc2OC1 |  | > 100 µM |  | > 100 µM |  |  |  | > 100 µM |  | > 100 µM |  | > 100 µM |  | > 100 µM |  |  |  | > 100 µM | > 100 µM |  |
| COC(=O)c1cc(Br)c(Br)n1C |  | > 100 µM |  | > 100 µM |  | > 100 µM |  | > 100 µM |  | > 100 µM |  | > 100 µM |  | > 100 µM |  |  |  | > 100 µM | > 100 µM |  |
| CN(C)P(=O)(/C(N)=N/Nc1ccc([N+](=O)[O-])cc1)N(C)C |  | > 100 µM |  |  |  | > 100 µM |  | > 100 µM |  | > 100 µM |  | > 100 µM |  | > 100 µM |  | > 100 µM |  | > 100 µM |  |  |
| O=C(N/N=C/c1cccc(O)c1O)c1ccccc1 | 0.511 µM | > 100 µM | 4.9 µM | > 100 µM | 0.244 µM | > 59.7 µM | 0.635 µM | > 100 µM | 0.902 µM | 5.32 µM | 4.66 µM | 85.6 µM | 3.22 µM | > 30.2 µM | 0.878 µM | > 100 µM |  |  | > 100 µM | 3.49 µM |
| CCOC(=O)CN=c1nc(SC)sc2c(C(=O)OCC)nc(Sc3ccccc3)n12 |  | > 100 µM |  | > 100 µM |  | > 100 µM |  | > 100 µM |  | > 100 µM |  |  |  | > 100 µM |  |  |  | > 100 µM | > 100 µM |  |
